# Test results from US7074814B2, “3-substituted indoles and derivatives thereof as therapeutic agents” (Warner-Lambert Company LLC, priority 2003, dated 2006).
# Molecular target: T1, p101/p110γ protein (PI3Kγ) (Homo sapiens, UniProt P48736)
# T1 construct: HA; made in house; host or cells: Spodoptera frugiperda (Sf9) cells, baculovirus coinfection
# Test: PI3Kγ in vitro kinase assay
# Type: biochemical
# Details: purified recombinant p101/p110γ with G protein β1/γ2 subunits; 20 μM ATP, 25 μM PIP2; 20 minutes at room temperature
# Experimental: Spodtera frugiperda cells, grown in ESF921 media, were coinfected with baculovirus expressing a glu-tagged p101 and baculovirus expressing an HA-tagged p110γ, at a 3:1 ratio of p101 baculovirus to p110γ baculovirus. Sf9 cells were grown to 1×10^7 total cells/mL in 10 L bioreactors and harvested 48–72 hours post infection. Samples of infected cells were then tested for expression of […] PI3 kinase by immunoprecipitation and Western Blot analysis methods (see below).
# To purify PI3Kγ, 4 volumes of room temperature hypotonic lysis buffer (1 mM MgCl2, 1 mM DTT, 5 mM EGTA, 1 mM Pefabloc, 0.5 μM aprotinin, 5 μM leupeptin, 2 μM pepstatin, 5 μM E64, pH 8) per gram of cell paste, was poured onto frozen cell pellets with stirring, then lysed in a nitrogen “bomb” at 400 psi (599HC T316, Parr Instrument Co, Moline, Ill.). NaCl was added to 150 mM, and sodium cholate was added to 1% and mixed for another 45 minutes. The lysates were clarified by centrifugation for 25 minutes at 14,000 rpm. The lysates were then loaded over anti-glu-linked Protein-G Sepaharose beads (Covance Research Products, Richmond, Calif.) using 20 mL resin/50 g cell paste. The column was washed with 15 volumes of wash buffer (1 mM DTT, 0.2 mM EGTA, 1 mM Pefabloc, 0.5 μM aprotinin, 5 μM leupeptin, 2 μM pepstatin, 5 μM E64, 150 mM NaCl, 1% sodium cholate, pH 8). PI3Kγ was eluted with 6 column volumes of wash buffer that contain 100 μg/mL of a peptide that competes for binding of the glu tag. The column fractions with the eluted protein (determined by taking OD280 readings) were collected and dialyzed in 0.2 mM EGTA, 1 mM DTT, 1 mM Pefabloc, 5 μM leupeptin, 0.5% sodium cholate, 150 mM NaCl, and 50% glycerol, pH 8. The fractions were stored at −80° C. until further use.
# Spodtera frugiperda cells were coinfected with baculovirus expressing a glu-tagged G protein β1 and baculovirus expressing a G protein β2, at a 1:1 ratio of glu-tagged G protein β1 baculovirus to G protein β2 baculovirus. Sf9 cells are grown in 10 L bioreactors and harvested 48–72 hours post infection. Samples of infected cells were tested for G protein β1/β2 expression by Western Blot analysis, as described below. Cell lysates were homogenized and loaded onto a column of glu-tagged beads as in Biological Example 1 and competed off the column with a glu peptide and processed as described in Biological Example 1.
# The inhibitory properties of the compounds in Table 1 were assayed in an in vitro PI3K assay. In a 96-well polypropylene plate, each well was spotted with 2 μL of 50 times the desired final concentration of compound in DMSO. Purified recombinant p101/p110γ protein (0.03 μg; ˜2.7 nM) and G protein β1/γ2 subunits (0.09 μg; ˜57.7 nM) for each reaction was combined in the assay buffer (30 mM HEPES, 100 mM NaCl, 1 mM EGTA, and 1 mM DTT). ATP and [γ-^32P-ATP] (0.09 μCi) were added to this mixture so that the final ATP concentration in the reaction was 20 μM. Lipid micelles were formed by sonicating phosphatidylinositol-4,5-diphosphate (PIP2), phosphatidylethanolamine (PE), and Na-cholate in the assay buffer for 10 minutes, adding MgCl2 and incubating on ice for 20 minutes, for final concentrations of 25 μM PIP2, 300 μM PE, 0.02% Na-cholate, and 10 mM MgCl2 in the reaction. The reactions were started by adding equal volumes lipid and enzyme mixture in a total volume of 50 μL, allowed to run for 20 minutes at room temperature, and stopped with 100 μL 75 mM H3PO4. The lipid product was transferred to a glass fiber filter plate and washed with 75 mM H3PO4 several times. The presence of radioactive lipid product (PIP3) was measured by adding Wallac Optiphase mix to each well and counting in a Wallac 1450 Trilux plate reader (PerkinElmer Life Sciences Inc., Boston, Mass. 02118). The IC50 for each compound tested is reported in μM in Table 1: […]
# T1 sequence (P48736 whole entry, species assumed): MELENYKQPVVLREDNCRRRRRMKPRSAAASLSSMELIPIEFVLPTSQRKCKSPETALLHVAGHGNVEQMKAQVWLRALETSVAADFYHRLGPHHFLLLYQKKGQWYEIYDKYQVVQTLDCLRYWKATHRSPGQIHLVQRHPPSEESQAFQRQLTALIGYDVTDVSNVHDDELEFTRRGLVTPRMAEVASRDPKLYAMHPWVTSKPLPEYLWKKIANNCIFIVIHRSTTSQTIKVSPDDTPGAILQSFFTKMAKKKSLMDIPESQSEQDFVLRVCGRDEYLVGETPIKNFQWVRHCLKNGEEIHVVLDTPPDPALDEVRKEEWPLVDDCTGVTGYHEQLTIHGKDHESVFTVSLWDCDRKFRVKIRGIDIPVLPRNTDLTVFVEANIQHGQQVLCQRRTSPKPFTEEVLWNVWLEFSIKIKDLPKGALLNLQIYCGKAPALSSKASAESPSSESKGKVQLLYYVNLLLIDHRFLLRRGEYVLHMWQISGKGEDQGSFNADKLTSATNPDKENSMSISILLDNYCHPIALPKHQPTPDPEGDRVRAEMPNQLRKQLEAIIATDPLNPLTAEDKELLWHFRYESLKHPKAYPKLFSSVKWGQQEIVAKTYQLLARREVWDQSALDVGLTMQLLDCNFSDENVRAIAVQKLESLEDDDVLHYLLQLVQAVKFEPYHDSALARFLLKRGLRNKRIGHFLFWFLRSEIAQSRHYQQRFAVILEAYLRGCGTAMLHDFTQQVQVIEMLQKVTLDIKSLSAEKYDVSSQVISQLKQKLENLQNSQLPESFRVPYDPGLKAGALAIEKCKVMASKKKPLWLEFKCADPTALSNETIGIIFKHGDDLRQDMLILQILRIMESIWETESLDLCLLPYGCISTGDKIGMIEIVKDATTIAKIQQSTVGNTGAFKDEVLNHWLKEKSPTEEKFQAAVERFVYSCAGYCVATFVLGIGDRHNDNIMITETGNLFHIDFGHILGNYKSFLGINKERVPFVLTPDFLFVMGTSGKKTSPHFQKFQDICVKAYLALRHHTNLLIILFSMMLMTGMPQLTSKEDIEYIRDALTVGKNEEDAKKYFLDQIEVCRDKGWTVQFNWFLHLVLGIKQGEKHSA
# T1 sequence (Q8WYR1 whole entry partner, species assumed): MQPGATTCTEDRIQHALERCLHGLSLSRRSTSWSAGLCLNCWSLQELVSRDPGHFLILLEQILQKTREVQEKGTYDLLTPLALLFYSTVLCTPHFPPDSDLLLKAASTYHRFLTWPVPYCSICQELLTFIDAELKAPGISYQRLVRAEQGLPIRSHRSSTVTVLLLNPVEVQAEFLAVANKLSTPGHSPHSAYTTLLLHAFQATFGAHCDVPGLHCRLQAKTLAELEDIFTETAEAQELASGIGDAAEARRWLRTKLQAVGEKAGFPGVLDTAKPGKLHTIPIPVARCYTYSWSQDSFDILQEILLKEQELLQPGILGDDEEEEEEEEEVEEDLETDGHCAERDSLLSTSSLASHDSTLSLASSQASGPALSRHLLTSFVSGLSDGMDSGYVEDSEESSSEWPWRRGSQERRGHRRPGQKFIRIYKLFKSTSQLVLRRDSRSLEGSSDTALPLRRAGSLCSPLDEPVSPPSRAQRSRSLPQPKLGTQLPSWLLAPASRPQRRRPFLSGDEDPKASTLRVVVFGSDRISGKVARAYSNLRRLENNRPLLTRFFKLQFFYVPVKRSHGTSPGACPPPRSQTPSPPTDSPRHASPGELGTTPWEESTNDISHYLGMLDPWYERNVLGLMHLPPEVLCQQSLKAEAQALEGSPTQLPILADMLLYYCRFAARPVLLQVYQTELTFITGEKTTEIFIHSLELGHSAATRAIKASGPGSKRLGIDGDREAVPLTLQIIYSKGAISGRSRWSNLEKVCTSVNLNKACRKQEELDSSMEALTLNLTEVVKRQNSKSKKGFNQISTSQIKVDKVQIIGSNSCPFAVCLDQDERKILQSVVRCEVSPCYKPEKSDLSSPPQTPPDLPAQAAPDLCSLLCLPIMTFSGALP
row,Molecule,IC50 [nM]
1,"1-Ethyl-5,6-dimethoxy-3-phenyl-1H-indole-2-carboxylic acid (1H-tetrazol-5-yl)-amide [Example 6]",6600
2,"5,6-Dimethoxy-3-phenyl-1-propyl-1H-indole-2-carboxylic acid (1H-tetrazol-5-yl)-amide [Example 7]",4140
3,"COc1cc2[nH]c(C(=O)Nc3nn[nH]n3)c(Sc3ccccc3C)c2cc1OC [Example 1, 5,6-Dimethoxy-3-o-tolylsulfanyl-1H-indole-2-carboxylic acid (2H-tetrazol-5-yl)-amide]",585

# Second part, the molecule after the results:
row,IC50 [nM],Molecule
1,1840,"COc1cc2[nH]c(C(=O)Nc3nn[nH]n3)c(Sc3ccc(Cl)c(Cl)c3)c2cc1OC [Example 2, 3-(3,4-Dichloro-phenylsulfanyl)-5,6-dimethoxy-1H-indole-2-carboxylic acid (2H-tetrazol-5-yl)-amide]"
2,550,"COc1cc2c(Sc3ccccc3)c(C(=O)Nc3nn[nH]n3)n(C)c2cc1OC [Example 3, 5,6-Dimethoxy-1-methyl-3-phenylsulfanyl-1H-indole-2-carboxylic acid (2H-tetrazol-5-yl)-amide]"
3,210,"COc1cc2[nH]c(C(=O)Nc3nn[nH]n3)c(Sc3ccccc3)c2cc1OC [Example 4, 5,6-Dimethoxy-3-phenylsulfanyl-1H-indole-2-carboxylic acid (2H-tetrazol-5-yl)-amide]"
4,725,"COc1cccc(Sc2c(C(=O)Nc3nn[nH]n3)[nH]c3cc(OC)c(OC)cc23)c1 [Example 5, 5,6-Dimethoxy-3-(3-methoxy-phenylsulfanyl)-1H-indole-2-carboxylic acid (2H-tetrazol-5-yl)-amide]"
